Key:
[1] = tested on: Primary human subcutaneous adipocytes; assay: Glucose uptake in human subcutaneous adipocytes, insulin resistant model; format: cell-based
Procedure: As described above, primary human subcutaneous adipocytes were differentiated for two weeks prior to treatment. To induce an insulin resistant state, cells were treated in serum free Dulbecco's Modified Eagle Medium (high glucose) and […] for 24 hours. Cells were simultaneously treated with compounds diluted in DMSO for 24 hours. As described above, after 24 hours, media was exchanged for assay buffer and the compounds were added again but in the presence of approximately 1 nM insulin. Cells were washed and lysed after 2 hours and glucose uptake was measured. […] Statistical changes in glucose uptake were determined by way ANOVA and compared to DMSO.

Mouse 3T3-L1 cells = assay: Mouse adipocyte lipolysis assay; format: cell-based; details: Mus musculus, 3T3-L1, 24 hours, read-out: Lipolysis Free Fatty Acids % DMSO
Procedure: Once the cells became confluent, they were seeded into a tissue culture treated 96 well plate. […] After 14 days of differentiation, cells were treated with compounds of interest. After 24 hours post-treatment, the cell viability was assessed using CellTiter-Glo Luminescent Cell Viability Assay from Promega, and lipolysis was determined using Lipolysis Assay Kit from ZenBio.

Mouse myocyte = Mouse myocyte lipolysis assay; format: cell-based; details: Mus musculus, read-out: Free glycerol % DMSO
Procedure: Cells were obtained from ATCC and cultured in Dulbecco's Modified Eagle's medium (DMEM) containing 20% fetal bovine serum and 1% penicillin/streptomycin at 37° C. in an incubator with 5% CO2. Once the cells became confluent, they were seeded into a tissue culture treated 96 well plate. The next day, the medium containing DMEM with 2% equine serum was used to start differentiation. Once cells were fully differentiated, they were treated with indicated compounds.

Caco-2 colonocytes = assay: Human Caco-2 barrier integrity assay (TEER); format: cell-based; details: 48 hours
Procedure: Caco-2 colonocytes were maintained at 37° C. and 5% CO2 in Dulbecco's Modified Eagle Medium (DMEM) and supplemented with 10% FBS, 1% NEAA, 1% penicillin-streptomycin. At 70-80% confluency, cells were trypsinized and seeded in 0.4 cm^2 transwell collagen I coated membranes with supplemented DMEM in both apical and basolateral compartments. Cells were seeded at a density of 200,000 cells per well and maintained for 10 days to form a polarized barrier with a TransEpithelial Electrial Resistance (TEER) reading above 1000Ω. On the first day of the assay, initial TEER readings were taken and cytokines were added to the basolateral media (50 ng/mL TNFα, 25 ng/mL IFNγ and 10 ng/mL IL-1β) to reduce barrier integrity while compounds diluted in (dimethylsulfoxide) DMSO were added to the apical media in triplicate. After 48 hours, TEER readings were taken again and viability was measured by CellTiter 96® AQueous One Solution Cell Proliferation Assay (Promega). The percent change in TEER over the 48 hours was determined and normalized to the 0.1% DMSO control (Table 6).

naïve CD4+ T cells = assay: Human regulatory T cell differentiation assay; format: cell-based; details: 6 days
Method in brief: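 Naïve CD4+ T cells from healthy-donor PBMCs cultured 6 days in OpTmizer medium with 5 ng/ml TGF-β, 100 U/ml IL-2 and CD3/CD28/CD2 activator, with or without compound. Tregs (live CD4+CD3+CD25+FOXP3+, lineage-negative) measured by flow cytometry and expressed as % of total CD4+ T cells.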

[2] = tested on: Human Peripheral Blood Monocytes (PBMCs); assay: Cytokine release from human PBMCs; format: cell-based; details: 100 μM, LPS, 24 hours
Procedure: Human donor blood (8 mL) was collected in sodium citrate CPT tubes and centrifuged at 1,600×g for 20 minutes at room temperature. […] PBMCs samples were centrifuged at 400×g for 10 minutes at 10° C. […] PBMCs were filtered through a 70 micron mesh to remove any cellular debris. […] PBMCs in a 96-well plate were rested for 30 minutes in a 37° C., 5% CO2 incubator, then subsequently treated with 10 μl of indicated compound. After 2 hours 10 μL of LPS (O111:B4) 1 mg/mL was added to test wells. After 24 hours of incubation at 37° C., 5% CO2, 100 μL of cell supernatant was collected and transferred to a 96-well plate (non-tissue treated, flat bottom). The plate was centrifuged at 350×g for 5 minutes at room temperature, and then the clear supernatant transferred to a new 96-well plate (non-tissue treated, flat bottom). The remaining cells were tested for viability using CellTiter-Glo® Luminescent Cell Viability Assay (Promega). The supernatant was analyzed for TNFα, IL-6 and IL-1β (kit LXSAHM-03; R&D Systems), using Luminex Immunoassay Technology (MAGPIX System). Cytokine levels of LPS treated DMSO control samples were set to 100%, and compound treated samples were expressed relative to this (Table 13).

[3] = tested on: Primary human subcutaneous adipocytes; assay: Glucose uptake in human subcutaneous adipocytes, insulin sensitive model; format: cell-based
Procedure: Primary human subcutaneous adipocytes (Zen Bio, Research Triangle Park, N.C.) were differentiated for two weeks prior to treatment. Cells were treated with indicated compounds diluted in (dimethyl-sulfoxide) DMSO in serum free medium for 24 hours in triplicate. After 24 hours, media was exchanged for assay buffer and the compounds were added again but in the presence of approximately 1 nM insulin. Glucose uptake was initiated with the addition of a cocktail containing 2-deoxyglucose and ^3H-2-deoxyglucose and allowed to incubate for 2 hours. Cells were washed, lysed and glucose uptake was measured as counts per well. As an assay control, 100 nM of insulin was used during the 2 hours of glucose uptake. […] Statistical changes in glucose uptake were determined by way ANOVA and compared to DMSO.

AhR = AhR activation in Caco-2 cells through CYP1A1 mRNA expression
Procedure: Caco-2 cells from American Type Culture Collection (ATCC) were plated in a sterile tissue culture treated 96-well plate (ThermoFisher) at […] per well, and grown overnight at 37° C., 5% CO2 in DMEM complete (Gibco) in order to achieve confluence. After the incubation medium was aspirated from the Caco-2 monolayers, tissues were then washed with 200 μL of warmed PBS solution, and subsequently 190 μL of pre-warmed growth medium was added to each well. Compounds of interest were diluted at a 20× concentration in growth medium containing 2% DMSO, and 10 μL of compound solutions were added to respective wells in triplicate. Compounds where incubated overnight at 37° C., 5% CO2. 2-(1′H-indole-3′-carbonyl)-thiazole-4-carboxylic acid methyl ester (ITE) was used as the positive control for AhR activation at 1 and 100 μM concentrations. At the end of the incubation, medium was aspirated off of the Caco-2 cells, and washed with 100 μL of cold PBS solution. RNA was extracted via the TaqMan™ Gene Expression Cells-to-CT™ Kit (ThermoFisher) according to the manufacturers protocol. The QuantStudio 6 Flex (Applied Biosciences) was used to analyze mRNA levels of CYP1A1 using GAPDH as the endogenous control. TaqMan™ probe sets for both genes were acquired from ThermoFisher. Samples were run in triplicate and data was analyzed using the QuantStudio software and reported as linear (Table 1) and log 2(ΔΔCT) values. Statistical analysis was performed using a two-tailed t-test comparing CYP1A1 levels in the presence of each individual compound to the vehicle negative control.

[4] = Homo sapiens, CD4+ T, 144 h, 1 uM, read-out: Treg induction % DMSO

For `O=c1c(O)c(-c2ccc(O)c(O)c2)oc2cc(O)cc(O)c12` [Quercetin, quercetin], the “Insulin Resistant % DMSO (glucose uptake)” value (shortened to “Insulin Resistant % DMSO”) ([1]; 100 nM) was “= (50%> ≤110%: =)”, the “Insulin Resistant % DMSO” value ([1]; 1 μM) was “= (50%> ≤110%: =)” and the activity at 0.1 µM (Mouse 3T3-L1 cells; 100 nM) was 50 to 70%. The activity at 1 µM (Mouse 3T3-L1 cells) was 50 to 70%, the activity at 0.1 µM (Mouse myocyte; 100 nM) was 70 to 90% and the activity at 1 µM (Mouse myocyte) was 70 to 90%. The “% Change in TEER from DMSO” value (Caco-2 colonocytes; 1 μM + cytokines) was “+ (125%> ≤150%: +)”, the “% Change in TEER from DMSO” value (Caco-2 colonocytes; 100 μM + cytokines) was “− (≤125%: −)” and the “Cell viability % DMSO” value (naïve CD4+ T cells; 100 nM) was “= (90%≥ ≤110%: =)”. The “Cell viability % DMSO” value (naïve CD4+ T cells; 1 uM) was “= (90%≥ ≤110%: =)”, the activity at 0.1 µM (naïve CD4+ T cells; Homo sapiens, CD4+ T, 144 h, 100 nM, read-out: Treg induction % DMSO) was 90 to 110% and the activity at 1 µM (naïve CD4+ T cells; [4]) was 90 to 110%. The “IL6 % DMSO control” value [2] was “+ ((+) 50%≥ <90% DMSO)”, the “ILβ % DMSO control” value [2] was “+ ((+) 50%≥ <90% DMSO)” and the “TNFα % of DMSO control” value [2] was “+ ((+) 50%≥ <90% DMSO)”. For the same compound, the “Insulin Sensitive % DMSO (glucose uptake)” value (from here on “Insulin Sensitive % DMSO”) ([3]; 100 nM) was “= (50%> ≤110%: =)” and the “Insulin Sensitive % DMSO” value ([3]; 1 μM) was “= (50%> ≤110%: =)”.

For `OCc1c[nH]c2ccccc12` [indole-3-carbinol], the “Average CYP1A1 mRNA levels” value (AhR; Conc. 1000.0 μM) was “+ (+ = >2-fold Vehicle)”.

For `COC(=O)c1csc(C(=O)c2c[nH]c3ccccc23)n1` [ITE, 2-(1′H-indole-3′-carbonyl)-thiazole-4-carboxylic acid methyl ester], the “Average CYP1A1 mRNA levels” value (AhR; Conc. 1.0 μM) was “+++ (+++ = >10-fold Vehicle)”.

In the case of `Cn1cc(C[C@H](N)C(=O)O)c2ccccc21` [1-methylindole-3-alanine], the “Average CYP1A1 mRNA levels” value (AhR; Conc. 10.0 μM) is reported as “+ (+ = >2-fold Vehicle)” and the “Average CYP1A1 mRNA levels” value (AhR; Conc. 100.0 μM) is reported as “+++ (+++ = >10-fold Vehicle)”.

With `c1ccc2[nH]ccc2c1` [indole] the “Average CYP1A1 mRNA levels” value (AhR; Conc. 1000.0 μM) was “+ (+ = >2-fold Vehicle)”.

With `CC(=O)O` [Acetate, acetic acid] the “Insulin Resistant % DMSO” value ([1]; 1 mM) was “= (50%> ≤110%: =)”, the “Insulin Resistant % DMSO” value ([1]; 3 mM) was “= (50%> ≤110%: =)” and the activity at 1000 µM (Mouse 3T3-L1 cells; 1 mM) was 50 to 70%. It also gave an activity at 3000 µM (Mouse 3T3-L1 cells; 3 mM) of 50 to 70%, an activity at 1000 µM (Mouse myocyte; 1 mM) of 90 to 100% and an activity at 3000 µM (Mouse myocyte; 3 mM) of 90 to 100%. For the same compound, the “% Change in TEER from DMSO” value (Caco-2 colonocytes; 1 mM + cytokines) was “− (≤125%: −)”, the “% Change in TEER from DMSO” value (Caco-2 colonocytes; 3 mM + cytokines) was “− (≤125%: −)” and the “Cell viability % DMSO” value (naïve CD4+ T cells; 1 mM) was “= (90%≥ ≤110%: =)”. The “Cell viability % DMSO” value (naïve CD4+ T cells; 3 mM) was “= (90%≥ ≤110%: =)”, the activity at 1000 µM (naïve CD4+ T cells; Homo sapiens, CD4+ T, 144 h, 1 mM, read-out: Treg induction % DMSO) was 110 to 130% and the activity at 3000 µM (naïve CD4+ T cells; Homo sapiens, CD4+ T, 144 h, 3 mM, read-out: Treg induction % DMSO) was over 130%. The “IL6 % DMSO control” value [2] was “= ((=) 90%≥ <110% DMSO)”, the “ILβ % DMSO control” value [2] was “= ((=) 90%≥ <110% DMSO)” and the “TNFα % of DMSO control” value [2] was “= ((=) 90%≥ <110% DMSO)”. The “Insulin Sensitive % DMSO” value ([3]; 1 mM) was “= (50%> ≤110%: =)” and the “Insulin Sensitive % DMSO” value ([3]; 3 mM) was “= (50%> ≤110%: =)”.

In the case of `O=C(O)c1ccccc1` [Benzoic acid], the “Average CYP1A1 mRNA levels” value (AhR; Conc. 10.0 μM) is reported as “+ (+ = >2-fold Vehicle)” and the “Average CYP1A1 mRNA levels” value (AhR; Conc. 100.0 μM) is reported as “+ (+ = >2-fold Vehicle)”.

`Oc1ccc(C=Cc2cc(O)cc(O)c2)cc1` [Resveratrol, resveratrol] was tested, and the “Insulin Resistant % DMSO” value ([1]; 10 μM) was “= (50%> ≤110%: =)”, the “Insulin Resistant % DMSO” value ([1]; 100 μM) was “− (<50%: −)” and the activity at 1 µM (Mouse 3T3-L1 cells) was 70 to 90%. The activity at 10 µM (Mouse 3T3-L1 cells; 10 μM) was 90 to 100%, the activity at 1 µM (Mouse myocyte) was 70 to 90% and the activity at 10 µM (Mouse myocyte; 10 μM) was 50 to 70%. For the same compound, the “% Change in TEER from DMSO” value (Caco-2 colonocytes; 10 μM + cytokines) was “− (≤125%: −)”, the “% Change in TEER from DMSO” value (Caco-2 colonocytes; 100 μM + cytokines) was “+++ (200%>: +++)” and the “Cell viability % DMSO” value (naïve CD4+ T cells; 1 uM) was “− (<90%: −)”. The “Cell viability % DMSO” value (naïve CD4+ T cells; 10 uM) was “− (<90%: −)”, the activity at 1 µM (naïve CD4+ T cells; [4]) was 110 to 130% and the activity at 10 µM (naïve CD4+ T cells; Homo sapiens, CD4+ T, 144 h, 10 uM, read-out: Treg induction % DMSO) was 110 to 130%. For the same compound, the “IL6 % DMSO control” value [2] was “+ ((+) 50%≥ <90% DMSO)”, the “ILβ % DMSO control” value [2] was “= ((=) 90%≥ <110% DMSO)” and the “TNFα % of DMSO control” value [2] was “+ ((+) 50%≥ <90% DMSO)”. The “Insulin Sensitive % DMSO” value ([3]; 10 μM) was “= (50%> ≤110%: =)” and the “Insulin Sensitive % DMSO” value ([3]; 100 μM) was “− (<50%: −)”.

In the case of `CC(O)CCO` (stereo not shown) [butanediol, 1,3-butanediol], the “Average CYP1A1 mRNA levels” value (AhR; Conc. 500.0 μM) is reported as “− (− = +2-fold Vehicle)”, the “% Change in TEER from DMSO” value (Caco-2 colonocytes; 100 μM + cytokines) is reported as “− (≤125%: −)” and the “% Change in TEER from DMSO” value (Caco-2 colonocytes; 0.5 mM + cytokines) is reported as “− (≤125%: −)”. The “IL6 % DMSO control” value [2] was “= ((=) 90%≥ <110% DMSO)”, the “ILβ % DMSO control” value [2] was “= ((=) 90%≥ <110% DMSO)” and the “TNFα % of DMSO control” value [2] was “= ((=) 90%≥ <110% DMSO)”.

Reference: patent US10953027B2, “Active agents and methods of their use for the treatment of metabolic disorders and nonalcoholic fatty liver disease” (Flagship Pioneering Innovations V, Inc., priority 2018, dated 2021)
